{
  "source": "patent US9499550B2",
  "about": "(BRISTOL-MYERS SQUIBB COMPANY, priority 2012, dated 2016)",
  "key": {"[1]": {"test_system": "HCV genotype 1a (H77 strain) replicon in HUH-7 cells", "assay": "HCV replicon luciferase reporter assay, genotype 1a", "type": "cell-based", "settings": "3 days incubation", "in_short": "(§1)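 Replicon inhibition for both genotypes was measured as Renilla luciferase signal (EnduRen, 7.5 μM final, 2 h) after 3-day, 37° C exposure of replicon-bearing HUH-7 cells in 4% FCS DMEM, 0.5% DMSO. The 1b construct carries S1179I; the 1a H77 construct carries P1496L and S2204I. Twenty-point, 3-fold dilutions were fitted four-parametrically for EC50, and CC50 was taken from multiplexed Cell Titer-Blue.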"}, "[2]": {"test_system": "HCV genotype 1b (Con1) replicon in HUH-7 cells", "assay": "HCV replicon luciferase reporter assay, genotype 1b", "type": "cell-based", "settings": "3 days incubation", "in_short": "as §1"}, "[3]": {"settings": "Hepatitis C virus, Huh-7, 72 h, HCV genotype 1a replicon luciferase assay, range class, read-out: LE_1a (EC50, range)"}, "[4]": {"settings": "Hepatitis C virus, Huh-7, 72 h, HCV genotype 1b replicon luciferase assay, range class, read-out: LE_1b (EC50, range)"}, "[5]": {"settings": "Hepatitis C virus, Huh-7, 72 h, HCV genotype 1a replicon luciferase, read-out: LE_1a (EC50, range)"}, "[6]": {"settings": "Hepatitis C virus, Huh-7, 72 h, HCV genotype 1b replicon luciferase, read-out: LE_1b (EC50, range)"}},
  "note": "Where two headings read alike, the source gives them in different places.",
  "data": [
    {"compound": "COc1cnc(O[C@@H]2C[C@H]3C(=O)N[C@]4(C(=O)NS(=O)(=O)C5(F)CC5)C[C@H]4/C=C\\CC[C@@H](C)C[C@@H](C)[C@H](NC(=O)OC(C)(C)C(F)(F)F)C(=O)N3C2)c2ccccc12", "note": "[Compound 14, 1,1,1-trifluoro-2-methylpropan-2-yl((2R,6S,7R,9R,13aS,14aR,16aS,Z)-14a-(((1-fluorocyclopropyl)sulfonyl)carbamoyl)-2-((4-methoxyisoquinolin-1-yl)oxy)-7,9-dimethyl-5,16-dioxo-1,2,3,5,6,7,8,9,10,11,13a,14,14a,15,16,16a-hexadecahydrocyclopropa[e]pyrrolo[1,2-a][1,4]diazacyclopentadecin-6-yl)carbamate]", "values": [
      {"measurement": "EC50", "setting": "[1]; [3]", "value": "< 5.46", "unit": "nM"},
      {"measurement": "EC50", "setting": "[2]; [4]", "value": "< 5.46", "unit": "nM"}
    ]},
    {"compound": "CC(C)Oc1cc2c(Cl)cccc2c(O[C@@H]2C[C@H]3C(=O)N[C@]4(C(=O)NS(=O)(=O)C5CC5)C[C@H]4/C=C\\CC[C@H](C)C[C@@H](C)[C@H](NC(=O)OC(C)(C)C(F)(F)F)C(=O)N3C2)n1", "note": "[Compound 1093, 1,1,1-trifluoro-2-methylpropan-2-yl((2R,6S,7R,9S,13aS,14aR,16aS,Z)-2-((5-chloro-3-isopropoxyisoquinolin-1-yl)oxy)-14a-((cyclopropylsulfonyl)carbamoyl)-7,9-dimethyl-5,16-dioxo-1,2,3,5,6,7,8,9,10,11,13a,14,14a,15,16,16a-hexadecahydrocyclopropa[e]pyrrolo[1,2-a][1,4]diazacyclopentadecin-6-yl)carbamate]", "values": [
      {"measurement": "EC50", "setting": "[1]; [3]", "value": "4.82 to 103", "unit": "nM"},
      {"measurement": "EC50", "setting": "[2]; [4]", "value": "< 5.46", "unit": "nM"}
    ]},
    {"compound": "COc1ccc2c(O[C@@H]3C[C@H]4C(=O)N[C@]5(C(=O)NS(=O)(=O)C6CC6)C[C@H]5/C=C\\CC[C@H](C)C[C@@H](C)[C@H](NC(=O)OC(C)(C)C)C(=O)N4C3)nc(-c3ccc(OC)c(F)c3)cc2c1", "note": "[Compound 3049, tert-butyl ((2R,6S,7R,9S,13aS,14aR,16aS,Z)-14a-((cyclopropylsulfonyl)carbamoyl)-2-((3-(3-fluoro-4-methoxyphenyl)-6-methoxyisoquinolin-1-yl)oxy)-7,9-dimethyl-5,16-dioxo-1,2,3,5,6,7,8,9,10,11,13a,14,14a,15,16,16a-hexadecahydrocyclopropa[e]pyrrolo[1,2-a][1,4]diazacyclopentadecin-6-yl)carbamate]", "values": [
      {"measurement": "EC50", "setting": "[1]; [3]", "value": "< 5.46", "unit": "nM"},
      {"measurement": "EC50", "setting": "[2]; [4]", "value": "< 5.46", "unit": "nM"}
    ]},
    {"compound": "1,1,1-trifluoro-2-methylpropan-2-yl((2R,6S,7R,9R,13aS,14aR,16aS,Z)-14a-((cyclopropylsulfonyl)carbamoyl)-2-((3,7-dimethoxy-2-(trifluoromethyl)quinoxalin-6-yl)oxy)-7-ethyl-9-methyl-5,16-dioxo-1,2,3,5,6,7,8,9,10,11,13a,14,14a,15,16,16a-hexadecahydrocyclopropa[e]pyrrolo[1,2-a][1,4]diazacyclopentadecin-6-yl)carbamate [Compound 4355]", "values": [
      {"measurement": "EC50", "setting": "[1]; HCV genotype 1a replicon luciferase, read-out: LE_1a (EC50, range)", "value": "5.01 to 35", "unit": "nM"},
      {"measurement": "EC50", "setting": "[2]; HCV genotype 1b replicon luciferase, read-out: LE_1b (EC50, range)", "value": "5.01 to 35", "unit": "nM"}
    ]},
    {"compound": "CC[C@@H]1C[C@H](C)CC/C=C\\[C@@H]2C[C@@]2(C(=O)NS(=O)(=O)C2(C)CC2)NC(=O)[C@@H]2C[C@@H](Oc3ncc(C(N)=O)c4cc(OC)ccc34)CN2C(=O)[C@H]1NC(=O)OC(C)(C)C", "note": "[Compound 4343, tert-butyl ((2R,6S,7R,9R,13aS,14aR,16aS,Z)-2-((4-carbamoyl-6-methoxyisoquinolin-1-yl)oxy)-7-ethyl-9-methyl-14a-(((1-methylcyclopropyl)sulfonyl)carbamoyl)-5,16-dioxo-1,2,3,5,6,7,8,9,10,11,13a,14,14a,15,16,16a-hexadecahydrocyclopropa[e]pyrrolo[1,2-a][1,4]diazacyclopentadecin-6-yl)carbamate]", "values": [
      {"measurement": "EC50", "setting": "[1]; [5]", "value": "5.01 to 35", "unit": "nM"},
      {"measurement": "EC50", "setting": "[2]; [6]", "value": "5.01 to 35", "unit": "nM"}
    ]},
    {"compound": "COc1cc2ccccc2c(O[C@@H]2C[C@H]3C(=O)N[C@]4(C(=O)NS(=O)(=O)C5CC5)C[C@H]4/C=C\\CC[C@@H](C)C[C@@H](C)[C@H](NC(=O)OC(C)(C)C(C)(F)F)C(=O)N3C2)n1", "note": "[Compound 6036, 3,3-difluoro-2-methylbutan-2-yl((2R,6S,7R,9R,13aS,14aR,16aS,Z)-14a-((cyclopropylsulfonyl)carbamoyl)-2-((3-methoxyisoquinolin-1-yl)oxy)-7,9-dimethyl-5,16-dioxo-1,2,3,5,6,7,8,9,10,11,13a,14,14a,15,16,16a-hexadecahydrocyclopropa[e]pyrrolo[1,2-a][1,4]diazacyclopentadecin-6-yl)carbamate]", "values": [
      {"measurement": "EC50", "setting": "[1]; Hepatitis C virus, Huh-7, 72 h, HCV genotype 1a replicon luciferase, read-out: LE_1a (EC50)", "value": 0.53, "unit": "nM"},
      {"measurement": "EC50", "setting": "[1]; [5]", "value": "< 5.46", "unit": "nM"},
      {"measurement": "EC50", "setting": "[2]; Hepatitis C virus, Huh-7, 72 h, HCV genotype 1b replicon luciferase, read-out: LE_1b (EC50)", "value": 0.38, "unit": "nM"},
      {"measurement": "EC50", "setting": "[2]; [6]", "value": "< 5.46", "unit": "nM"}
    ]},
    {"compound": "COc1ccc2c(O[C@@H]3C[C@H]4C(=O)N[C@]5(C(=O)NS(=O)(=O)C6CC6)C[C@H]5/C=C\\CC[C@H](C)C[C@@H](C)[C@H](NC(=O)O[C@@H]5C[C@@H]6C[C@@H]6C5)C(=O)N4C3)nc(-c3ccc(OC)c(Cl)c3)cc2c1", "note": "[Compound 3053, (1R,3r,5S)-bicyclo[3.1.0]hexan-3-yl((2R,6S,7R,9S,13aS,14aR,16aS,Z)-2-((3-(3-chloro-4-methoxyphenyl)-6-methoxyisoquinolin-1-yl)oxy)-14a-((cyclopropylsulfonyl)carbamoyl)-7,9-dimethyl-5,16-dioxo-1,2,3,5,6,7,8,9,10,11,13a,14,14a,15,16,16a-hexadecahydrocyclopropa[e]pyrrolo[1,2-a][1,4]diazacyclopentadecin-6-yl)carbamate]", "values": [
      {"measurement": "EC50", "setting": "[1]; [3]", "value": "< 5.46", "unit": "nM"},
      {"measurement": "EC50", "setting": "[2]; [4]", "value": "< 5.46", "unit": "nM"}
    ]},
    {"compound": "CC[C@@H]1C[C@H](C)CC/C=C\\[C@@H]2C[C@@]2(C(=O)NS(=O)(=O)C2(C)CC2)NC(=O)[C@@H]2C[C@@H](Oc3nc4cc(OC)ccc4nc3Cl)CN2C(=O)[C@H]1NC(=O)OC(C)(C)C", "note": "[Compound 4256, tert-butyl ((2R,6S,7R,9R,13aS,14aR,16aS,Z)-2-((3-chloro-7-methoxyquinoxalin-2-yl)oxy)-7-ethyl-9-methyl-14a-(((1-methylcyclopropyl)sulfonyl)carbamoyl)-5,16-dioxo-1,2,3,5,6,7,8,9,10,11,13a,14,14a,15,16,16a-hexadecahydrocyclopropa[e]pyrrolo[1,2-a][1,4]diazacyclopentadecin-6-yl)carbamate]", "values": [
      {"measurement": "EC50", "setting": "[1]; [5]", "value": "0.51 to 1", "unit": "nM"},
      {"measurement": "EC50", "setting": "[2]; [6]", "value": "0.1 to 0.5", "unit": "nM"}
    ]},
    {"compound": "COc1ccc2c(O[C@@H]3C[C@H]4C(=O)N[C@]5(C(=O)NS(=O)(=O)C6(C)CC6)C[C@H]5/C=C\\CC[C@@H](C)C[C@@H](C)[C@H](NC(=O)OC(C)(C)C)C(=O)N4C3)nc(N(C)C)cc2c1", "note": "[Compound 3109, tert-butyl ((2R,6S,7R,9R,13aS,14aR,16aS,Z)-2-((3-(dimethylamino)-6-methoxyisoquinolin-1-yl)oxy)-7,9-dimethyl-14a-(((1-methylcyclopropyl)sulfonyl)carbamoyl)-5,16-dioxo-1,2,3,5,6,7,8,9,10,11,13a,14,14a,15,16,16a-hexadecahydrocyclopropa[e]pyrrolo[1,2-a][1,4]diazacyclopentadecin-6-yl)carbamate]", "values": [
      {"measurement": "EC50", "setting": "[1]; [3]", "value": "4.82 to 103", "unit": "nM"},
      {"measurement": "EC50", "setting": "[2]; [4]", "value": "4.82 to 103", "unit": "nM"}
    ]},
    {"compound": "CCOc1cc2ccnc(O[C@@H]3C[C@H]4C(=O)N[C@]5(C(=O)NS(=O)(=O)C6(C)CC6)C[C@H]5/C=C\\CC[C@@H](C)C[C@@H](CC)[C@H](NC(=O)OC(C)(C)C(F)F)C(=O)N4C3)c2cc1F", "note": "[Compound 5525, 1,1-difluoro-2-methylpropan-2-yl((2R,6S,7R,9R,13aS,14aR,16aS,Z)-2-((6-ethoxy-7-fluoroisoquinolin-1-yl)oxy)-7-ethyl-9-methyl-14a-(((1-methylcyclopropyl)sulfonyl)carbamoyl)-5,16-dioxo-1,2,3,5,6,7,8,9,10,11,13a,14,14a,15,16,16a-hexadecahydrocyclopropa[e]pyrrolo[1,2-a][1,4]diazacyclopentadecin-6-yl)carbamate]", "values": [
      {"measurement": "EC50", "setting": "[1]; [5]", "value": "1.01 to 5", "unit": "nM"},
      {"measurement": "EC50", "setting": "[2]; [6]", "value": "0.51 to 1", "unit": "nM"}
    ]},
    {"compound": "COc1ccc2c(O[C@@H]3C[C@H]4C(=O)N[C@]5(C(=O)NS(=O)(=O)C6CC6)C[C@H]5/C=C\\CC[C@H](C)C[C@@H](C)[C@H](NC(=O)OC(C)(C)C(F)(F)F)C(=O)N4C3)nc(N3CCOCC3)cc2c1", "note": "[Compound 3098, 1,1,1-trifluoro-2-methylpropan-2-yl((2R,6S,7R,9S,13aS,14aR,16aS,Z)-14a-((cyclopropylsulfonyl)carbamoyl)-2-((6-methoxy-3-morpholinoisoquinolin-1-yl)oxy)-7,9-dimethyl-5,16-dioxo-1,2,3,5,6,7,8,9,10,11,13a,14,14a,15,16,16a-hexadecahydrocyclopropa[e]pyrrolo[1,2-a][1,4]diazacyclopentadecin-6-yl)carbamate]", "values": [
      {"measurement": "EC50", "setting": "[1]; [3]", "value": "< 5.46", "unit": "nM"},
      {"measurement": "EC50", "setting": "[2]; [4]", "value": "< 5.46", "unit": "nM"}
    ]},
    {"compound": "CCOc1ccc2c(O[C@@H]3C[C@H]4C(=O)N[C@]5(C(=O)NS(=O)(=O)C6CC6)C[C@H]5/C=C\\CC[C@@H](C)C[C@@H](CC)[C@H](NC(=O)OC(C)(C)C)C(=O)N4C3)nccc2c1", "note": "[Compound 5361, tert-butyl ((2R,6S,7R,9R,13aS,14aR,16aS,Z)-14a-((cyclopropylsulfonyl)carbamoyl)-2-((6-ethoxyisoquinolin-1-yl)oxy)-7-ethyl-9-methyl-5,16-dioxo-1,2,3,5,6,7,8,9,10,11,13a,14,14a,15,16,16a-hexadecahydrocyclopropa[e]pyrrolo[1,2-a][1,4]diazacyclopentadecin-6-yl)carbamate]", "values": [
      {"measurement": "EC50", "setting": "[1]; [5]", "value": "0.51 to 1", "unit": "nM"},
      {"measurement": "EC50", "setting": "[2]; [6]", "value": "0.51 to 1", "unit": "nM"}
    ]}
  ]
}
